pIC50: −log10 of the molar value.

This experiment concerns the target T1, angiotensin-converting enzyme (ACE) (Oryctolagus cuniculus, UniProt P12822).
T1 construct: enzyme solution prepared from rabbit lung acetone powder; tissue Sigma Chemical Co., Ltd., U.S.A; host or cells: rabbit lung (acetone powder)
T1 sequence (P12822 34-1310): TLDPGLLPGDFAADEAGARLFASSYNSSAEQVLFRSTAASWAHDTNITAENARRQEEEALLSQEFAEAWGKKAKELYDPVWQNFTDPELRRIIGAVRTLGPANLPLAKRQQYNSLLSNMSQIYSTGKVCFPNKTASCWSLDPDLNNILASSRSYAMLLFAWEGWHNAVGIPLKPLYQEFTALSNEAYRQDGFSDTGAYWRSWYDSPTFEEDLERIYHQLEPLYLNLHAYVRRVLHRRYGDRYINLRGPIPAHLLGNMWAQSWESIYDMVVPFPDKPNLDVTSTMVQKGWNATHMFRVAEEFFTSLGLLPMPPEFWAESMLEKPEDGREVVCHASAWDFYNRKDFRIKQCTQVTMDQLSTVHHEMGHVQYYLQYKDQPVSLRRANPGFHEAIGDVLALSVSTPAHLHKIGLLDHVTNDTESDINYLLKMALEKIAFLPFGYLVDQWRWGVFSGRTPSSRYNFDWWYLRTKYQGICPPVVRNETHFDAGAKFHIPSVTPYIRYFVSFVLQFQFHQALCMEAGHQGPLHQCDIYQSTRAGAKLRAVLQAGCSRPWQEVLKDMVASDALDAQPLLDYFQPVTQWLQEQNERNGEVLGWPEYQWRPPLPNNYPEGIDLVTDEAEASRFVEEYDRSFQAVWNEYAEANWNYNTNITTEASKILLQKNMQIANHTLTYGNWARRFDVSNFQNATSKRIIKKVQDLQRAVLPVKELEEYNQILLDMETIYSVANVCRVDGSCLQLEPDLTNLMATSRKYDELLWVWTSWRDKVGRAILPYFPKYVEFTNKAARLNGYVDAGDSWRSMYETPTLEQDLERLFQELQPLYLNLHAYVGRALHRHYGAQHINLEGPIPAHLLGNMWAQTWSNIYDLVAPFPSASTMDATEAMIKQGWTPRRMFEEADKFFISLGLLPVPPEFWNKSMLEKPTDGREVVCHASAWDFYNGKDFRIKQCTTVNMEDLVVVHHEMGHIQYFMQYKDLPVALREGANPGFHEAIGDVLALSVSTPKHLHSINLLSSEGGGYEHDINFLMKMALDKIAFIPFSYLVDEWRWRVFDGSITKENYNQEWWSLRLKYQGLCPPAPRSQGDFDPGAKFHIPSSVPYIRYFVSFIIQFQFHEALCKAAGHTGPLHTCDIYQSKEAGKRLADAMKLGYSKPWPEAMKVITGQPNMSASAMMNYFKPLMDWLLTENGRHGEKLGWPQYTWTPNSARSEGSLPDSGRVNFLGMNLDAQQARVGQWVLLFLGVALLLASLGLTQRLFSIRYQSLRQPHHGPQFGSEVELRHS
The experiment is described as follows: Inhibitory activity against angiotensin-converting enzyme (ACE). In kind it is biochemical. Particulars: enzyme from rabbit lung acetone powder; substrate hippuryl-histidyl-leucine; 37° C.; preincubation 10 minutes, reaction 45 minutes. As for the experimental part:
A 100 μl quantity of an enzyme solution prepared from rabbit lung acetone powder (product of Sigma Chemical Co., Ltd., U.S.A.) was mixed with 100 μl of a sample solution. The mixture was gently shaken at 37° C. for 10 minutes. To the reaction mixture was added 100 μl of a solution containing 6.69 mM of hippuryl-histidyl-lecuine (product of Peptide Institute, Inc., Japan) as a substrate. The mixture was reacted at 37° C. for 45 minutes while being shaken. The reaction was terminated by addition of 200 μl of a 1N sulfuric acid to the reaction mixture. Sodium chloride (saturation amount) and diethyl ether (2 ml) were added to the reaction mixture to extract the hippuric acid formed by the reaction. The resulting mixture was vigorously shaken for 15 minutes and centrifuged at 2000 r.p.m. for 5 minutes. A 1.5 ml quantity of the ether layer was separated. After the solvent was distilled off, the residue was redissolved in 1.5 ml of distilled water and the absorbance of 228 nm was measured. A control was prepared by repeating the same procedure as above except that […] of distilled water was used in place of the sample solution.
The inhibitory activity was calculated by deducting the absorbance value of the residue formed by addition of the sample solution from that of the control and the resulting value was divided by the absorbance value of the control and multipled by 100, thereby giving a percent inhibition. The inhibitory activity was expressed as IC50, i.e., the concentration of the same sample solution in the reaction mixture in which concentration 50% inhibition is achieved.
Take `CC(N[C@@H](CSC1(C)CCCCC1)C(=O)O)C(=O)N1CCC[C@H]1C(=O)O` (stereo partly drawn): the negative logarithm of the IC50 (pIC50) was 8.28. The figure for `CC(N[C@@H](CSC1Cc2ccccc2C1)C(=O)O)C(=O)N1CCC[C@H]1C(=O)O` (stereo partly drawn) [Compound 2] is 9.16; for `CC(N[C@@H](CSC1CCCC1)C(=O)O)C(=O)N1CCC[C@H]1C(=O)O` (stereo partly drawn) [Compound 3] it is 8.99; for `CC(N[C@@H](CSCC(=O)NC1CCCC1)C(=O)O)C(=O)N1CCC[C@H]1C(=O)O` (stereo partly drawn) [Compound 4] it is 7.21. With `CC(N[C@@H](CSCC(=O)NCc1ccccc1)C(=O)O)C(=O)N1CCC[C@H]1C(=O)O` (stereo partly drawn) [Compound 5], the negative logarithm of the IC50 (pIC50) was 6.47. The figure for `CC(N[C@@H](CSCC(=O)N1CCCCC1)C(=O)O)C(=O)N1CCC[C@H]1C(=O)O` (stereo partly drawn) [Compound 6] is 6.35. For `CCCCCCCSC[C@H](NC(C)C(=O)N1CCC[C@H]1C(=O)NC(Cc1ccccc1)C(=O)O)C(=O)O` (stereo partly drawn) [Compound 7], the pIC50 is 7.62.

`CCCCCCCSC[C@H](NC(C)C(=O)N1CCC[C@H]1C(=O)NC(C)C(=O)O)C(=O)O` (stereo partly drawn) [Compound 8] showed a negative logarithm of the IC50 (pIC50) of 7.25. Then `CCCCCCCSC[C@H](NC(C)C(=O)N1CCC[C@H]1C(=O)NC(C(=O)O)C(C)C)C(=O)O` (stereo partly drawn) [Compound 9], with 7.47.

By pIC50 is commonly meant −log10 of the IC50, conventionally taken in molar units. High values mean a small IC50, low ones a large IC50.
